Results from US11180461B2, “Triazoles as Kv3 inhibitors” (AUTIFONY THERAPEUTICS LIMITED, priority 2012, dated 2021).

Assays:
[1] = molecular target: T1, human Kv3.1 channels (hKv3.1) (Homo sapiens, UniProt P48547); test: hKv3.1 recombinant cell assay, IonWorks Quattro planar array electrophysiology; type: cell-based; details: comparable = activity for one channel less than 2 fold that for the other
T1 construct: expressed in transfected cells; host or cells: CHO/Gam/E1A-clone22 (CGE22) cells, transduced with BacMam pFBM/human Kv3.1
T1 sequence (P48547 1-511): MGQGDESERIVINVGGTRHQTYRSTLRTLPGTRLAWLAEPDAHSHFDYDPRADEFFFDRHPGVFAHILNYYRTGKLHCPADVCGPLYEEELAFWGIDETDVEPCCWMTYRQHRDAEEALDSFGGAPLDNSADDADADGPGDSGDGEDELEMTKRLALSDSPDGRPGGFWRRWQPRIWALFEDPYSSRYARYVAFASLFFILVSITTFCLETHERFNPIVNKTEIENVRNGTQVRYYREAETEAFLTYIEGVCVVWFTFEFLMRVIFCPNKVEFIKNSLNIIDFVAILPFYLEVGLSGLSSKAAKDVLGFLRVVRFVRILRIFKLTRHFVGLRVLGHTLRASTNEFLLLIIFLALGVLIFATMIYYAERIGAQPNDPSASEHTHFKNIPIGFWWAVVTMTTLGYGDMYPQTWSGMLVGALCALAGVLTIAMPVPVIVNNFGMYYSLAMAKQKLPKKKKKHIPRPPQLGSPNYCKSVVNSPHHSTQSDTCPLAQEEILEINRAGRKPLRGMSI
Excerpt: The ability of the compounds of the invention to modulate the voltage-gated potassium channel subtypes Kv3.2/3.1 may be determined using the following assay. The assay may also be used to determine the ability of compounds of the invention to modulate the voltage-gated potassium channel Kv3.3. Analogous methods may be used to investigate the ability of the compounds of the invention to modulate other channel subtypes.
To assess compound effects on human Kv3.1 channels (hKv3.1), CHO/Gam/E1A-clone22 alias CGE22 cells were transduced using a hKv3.1 BacMam reagent. This cell line was designed to be an improved CHO-K1-based host for enhanced recombinant protein expression as compared to wild type CHO-K1. The cell line was generated following the transduction of CHO-K1 cells with a BacMam virus expressing the Adenovirus-Gam1 protein and selection with Geneticin-G418, to generate a stable cell line, CHO/Gam-A3. CHO/Gam-A3 cells were transfected with pCDNA3-E1A-Hygro, followed by hygromycin-B selection and FACS sorting to obtain single-cell clones. […]
Experiments were conducted at room temperature using IonWorks Quattro™ planar array electrophysiology technology (Molecular Devices Corp.) with PatchPlate™ PPC. […] Planar electrode hole resistances (Rp) were determined by applying a 10 mV voltage step across each well. […]

[2] = Determination of in vivo pharmacokinetic parameters (blood and brain) in rats, with and without Elacridar; details: rat, oral 1 mg/kg
Protocol: Adult male rats (Charles River, Italy) were dosed with test compound orally at 1 mg/kg (5 ml/kg, in 5% v/v DMSO, 0.5% w/v HPMC in water) and intravenously at 0.5 mg/kg (2 ml/kg, in 5% v/v DMSO 40% w/v PEG400 in saline). After oral administration, blood samples were collected under deep Isofluorane anesthesia from the portal vein and heart of each rat (1 rat per time point). After intravenous administration, serial blood samples were collected from the lateral tail vein of each rat. A further group of rats (n=1 per test compound) received a single intravenous administration of the PgP transport inhibitor, Elacridar (3 mg/kg) shortly before the oral administration of the test compound at 1 mg/kg, as above. Blood and brain samples were collected at a single timepoint of 0.5 h after dose administration for these animals. In all cases, blood samples were collected into potassium EDTA tubes.
Blood and brain samples were assayed for test compound concentration using a method based on protein precipitation with acetonitrile followed by HPLC/MS-MS analysis with an optimized analytical method.
The concentrations of test compound in blood (expressed as ng/ml) and brain (expressed as ng/g) at the different time points following either oral or intravenous dosing were analysed using a non-compartmental pharmacokinetic model using WinNonLin Professional version 4.1. The following parameters were drived:
Intravenous dosing: Maximum concentration over time (Cmax), integrated concentration over time (AUC), clearance (Clb), volume of distribution (Vss) and half-life (t1/2).
Oral dosing: Cmax, time of maximum concentration (Tmax), AUC, bioavailability (F %), fraction absorbed (Fa %), blood to brain ratio (AUC BB), and Fold-change in AUC BB in the presence of Elacridar.

- AUC BB relative to Reference Example 87 and Reference Example 88 of WO2011069951A1 ([2]; AUC BB from blood and brain): at least two fold
- change in AUC BB in the presence of Elacridar ([2]; Elacridar 3 mg/kg i.v., blood and brain at 0.5 h, p-glycoprotein interaction): limited change
Compound: Cc1ccc(Oc2ccc(-n3c(C)n[nH]c3=O)cn2)c2c1OCC21CC1 [Example 14, 5-methyl-4-{6-[(7-methylspiro[1-benzofuran-3,1′-cyclopropan]-4-yl)oxy]pyridin-3-yl}-2,4-dihydro-3H-1,2,4-triazol-3-one]
- activity between modulation of Kv3.1 and Kv3.2 channels [1]: comparable activity between modulation of Kv3.1 and Kv3.2 channels
